Measurements published in ChEMBL document CHEMBL4177602, “Zaluzanin C (ZC) induces osteoblast differentiation through regulating of osteogenic genes expressions in early stage of differentiation” (Bioorg Med Chem Lett, 2017).
Activity calls are given as the source filed them. The rule behind the calls is not given here.

Experiments:
MC3T3-E1 [1] = assay: Induction of osteoblast differentiation in mouse MC3T3-E1 cells assessed as increase in ALP activity at 5 uM after 4 days in presence of ascorbic acid/beta-GP BCIP/NBT liquid substrate based assay; format: functional, cell-based
MC3T3-E1 [2] = assay: Induction of mineralization in mouse MC3T3-E1 cells at 5 uM after 14 days by alizarin red S staining based assay; format: functional, cell-based
C3H 10T1/2 [3] = assay: Induction of osteoblast differentiation in mouse C3H10T1/2 cells assessed as increase in Runx2 mRNA expression at 5 uM after 2 days by qPCR analysis; format: functional, cell-based
C3H 10T1/2 [4] = assay: Induction of osteoblast differentiation in mouse C3H10T1/2 cells assessed as increase in Dlx5 mRNA expression at 5 uM after 2 days by qPCR analysis; format: functional, cell-based
[5] = Increase in Runx2 (unknown origin) promoter activity expressed in mouse C3H10T1/2 cells at 5 uM after 48 hrs by luciferase reporter gene assay; format: cell-based
MC3T3-E1 [6] = assay: Induction of mineralization in mouse MC3T3-E1 cells at 5 uM after 14 days in presence of ascorbic acid/beta-GP by alizarin red S staining based assay; format: functional, cell-based
MC3T3-E1 [7] = assay: Increase in Runx2 (unknown origin) promoter activity expressed in mouse MC3T3-E1 cells at 5 uM after 48 hrs by luciferase reporter gene assay; format: cell-based
MC3T3-E1 [8] = assay: Induction of osteoblast differentiation in mouse MC3T3-E1 cells assessed as increase in Id1 mRNA expression at 5 uM after 2 days by RT-PCR analysis; format: functional, cell-based
MC3T3-E1 [9] = assay: Induction of osteoblast differentiation in mouse MC3T3-E1 cells assessed as increase in Dlx5 mRNA expression at 5 uM after 2 days by qPCR analysis; format: functional, cell-based
C3H 10T1/2 [10] = assay: Induction of osteoblast differentiation in mouse C3H10T1/2 cells assessed as increase in Dlx5 mRNA expression at 5 uM after 2 days by RT-PCR analysis; format: functional, cell-based
MC3T3-E1 [11] = assay: Induction of osteoblast differentiation in mouse MC3T3-E1 cells assessed as increase in ALP activity at 5 uM after 4 days BCIP/NBT liquid substrate based assay; format: functional, cell-based
MC3T3-E1 [12] = assay: Induction of osteoblast differentiation in mouse MC3T3-E1 cells assessed as increase in Runx2 protein level at 5 uM after 2 days by Western blot analysis; format: functional, cell-based
MC3T3-E1 [13] = assay: Induction of osteoblast differentiation in mouse MC3T3-E1 cells assessed as increase in Runx2 mRNA expression at 5 uM after 2 days by qPCR analysis; format: functional, cell-based
MC3T3-E1 [14] = assay: Induction of osteoblast differentiation in mouse MC3T3-E1 cells assessed as increase in Id1 mRNA expression at 5 uM after 2 days by qPCR analysis; format: functional, cell-based
C3H 10T1/2 [15] = assay: Induction of osteoblast differentiation in mouse C3H10T1/2 cells assessed as increase in Runx2 mRNA expression at 5 uM after 2 days by RT-PCR analysis; format: functional, cell-based
MC3T3-E1 [16] = assay: Cytotoxicity against mouse MC3T3-E1 cells assessed as reduction in cell viability at >10 uM after 24 hrs by MTT assay; format: cell-based; settings: mc3t3-e1, 24 h
C3H 10T1/2 [17] = assay: Induction of osteoblast differentiation in mouse C3H10T1/2 cells assessed as increase in Id1 mRNA expression at 5 uM after 2 days by qPCR analysis; format: functional, cell-based
MC3T3-E1 [18] = assay: Induction of osteoblast differentiation in Runx2 knockdown mouse MC3T3-E1 cells assessed as increase in ALP activity at 5 uM after 4 days BCIP/NBT liquid substrate based assay; format: functional, cell-based
C3H 10T1/2 [19] = assay: Induction of osteoblast differentiation in mouse C3H10T1/2 cells assessed as increase in Id1 mRNA expression at 5 uM after 2 days by RT-PCR analysis; format: functional, cell-based
C3H 10T1/2 [20] = assay: Cytotoxicity against mouse C3H10T1/2 cells assessed as reduction in cell viability at >10 uM after 24 hrs by MTT assay; format: cell-based; settings: c3h 10t1/2, 24 h
C3H 10T1/2 [21] = assay: Cytotoxicity against mouse C3H10T1/2 cells assessed as reduction in cell viability at 1 to 5 uM after 24 hrs by MTT assay; format: cell-based; settings: c3h 10t1/2, 24 h
MC3T3-E1 [22] = assay: Induction of osteoblast differentiation in mouse MC3T3-E1 cells assessed as increase in Runx2 mRNA expression at 5 uM after 2 days by RT-PCR analysis; format: functional, cell-based
MC3T3-E1 [23] = assay: Induction of osteoblast differentiation in mouse MC3T3-E1 cells assessed as increase in Dlx5 mRNA expression at 5 uM after 2 days by RT-PCR analysis; format: functional, cell-based
MC3T3-E1 [24] = assay: Cytotoxicity against mouse MC3T3-E1 cells assessed as reduction in cell viability at 1 to 5 uM after 24 hrs by MTT assay; format: cell-based; settings: mc3t3-e1, 24 h
C3H 10T1/2 [25] = assay: Induction of osteoblast differentiation in mouse C3H10T1/2 cells assessed as increase in Runx2 protein level at 5 uM after 2 days by Western blot analysis; format: functional, cell-based

SMILES: C=C1[C@@H]2[C@H]3OC(=O)C(=C)[C@@H]3CCC(=C)[C@@H]2C[C@@H]1O [ZALUZANIN C]
- Activity (MC3T3-E1 [1]): Active
- Activity (MC3T3-E1 [2]): Active
- Activity (C3H 10T1/2 [3]): Active
- Activity (C3H 10T1/2 [4]): Active
- Activity [5]: Active
- Activity (MC3T3-E1 [6]): Active
- Activity (MC3T3-E1 [7]): Active
- Activity (MC3T3-E1 [8]): Active
- Activity (MC3T3-E1 [9]): Active
- Activity (C3H 10T1/2 [10]): Active
- Activity (MC3T3-E1 [11]): Active
- Activity (MC3T3-E1 [12]): Active
- Activity (MC3T3-E1 [13]): Active
- Activity (MC3T3-E1 [14]): Active
- Activity (C3H 10T1/2 [15]): Active
- Activity (MC3T3-E1 [16]): Toxic
- Activity (C3H 10T1/2 [17]): Active
- Activity (MC3T3-E1 [18]): inactive
- Activity (C3H 10T1/2 [19]): Active
- Activity (C3H 10T1/2 [20]): Toxic
- Activity (C3H 10T1/2 [21]): Non-Toxic
- Activity (MC3T3-E1 [22]): Active
- Activity (MC3T3-E1 [23]): Active
- Activity (MC3T3-E1 [24]): Non-Toxic
- Activity (C3H 10T1/2 [25]): Active
